# Measured values taken from ChEMBL document CHEMBL4402575.
# Target: Transthyretin (Homo sapiens) (UniProt P02766)
# Test: Stabilization of wild type human transthyretin expressed in Escherichia coli BL21(DE3) Star assessed as fibril formation at 50 uM pre-incubated with transthyretin before amyloid beta (1 to 42) addition by ThT fluorescence assay
row,Activity [%],SMILES
1,24,O=C(O)c1ccc2nc(-c3cc(Cl)cc(Cl)c3)oc2c1
2,26,O=C(O)c1cc(-c2ccc(F)cc2F)ccc1O
